Assay results taken from ChEMBL document CHEMBL2331133, “Inhibitory effect on NO production of triterpenes from the fruiting bodies of Ganoderma lucidum” (Bioorg Med Chem Lett, 2013).
The source made the active and inactive calls. No cut-off for these calls is given here.

Legend:
RAW264.7 [1] = assay: Cytotoxicity against mouse RAW264.7 cells assessed as cell viability at 50 uM after 24 hrs by MTT assay; format: cell-based; conditions: for Activity: mouse, raw264.7, 24 h, 50 µM
RAW264.7 [2] = assay: Cytotoxicity against LPS-stimulated mouse RAW264.7 cells assessed as cell viability at 50 uM after 24 hrs by MTT assay; format: cell-based; conditions: raw264.7, 24 h
RAW264.7 [3] = assay: Antiinflammatory activity in mouse RAW264.7 cells assessed as inhibition of LPS-induced nitric oxide production by Griess reaction method; format: functional, cell-based
RAW264.7 [4] = assay: Inhibition of LPS-induced COX-2 expression in mouse RAW264.7 cells at 1 to 30 uM treated 30 mins before LPS challenge measured after 18 hrs by immunoblot analysis; format: functional, cell-based
RAW264.7 [5] = assay: Inhibition of LPS-induced iNOS expression in mouse RAW264.7 cells treated 30 mins before LPS challenge measured after 18 hrs by immunoblot analysis; format: functional, cell-based

Row | IC50 (RAW264.7 [3]) [µM] | Structure (SMILES) | Activity (RAW264.7 [1]) | Activity (RAW264.7 [2]) | inhibition (RAW264.7 [4]) | inhibition (RAW264.7 [5]) | IC50 (RAW264.7 [1]; Mus musculus, RAW264.7, 24 h) [µM]
1 | – | CC(C)[C@@H](C)/C=C/[C@@H](C)[C@H]1CC[C@H]2C3=CC[C@H]4C[C@@H](O)CC[C@]4(C)[C@H]3CC[C@]12C | Non-toxic | Non-toxic | – | – | –
2 | 35 | CCCCOC(=O)CC[C@@H](C)[C@H]1CC(=O)[C@@]2(C)C3=C(C(=O)[C@@H](OC(C)=O)[C@]12C)[C@@]1(C)CCC(=O)C(C)(C)[C@@H]1CC3=O [BUTYL LUCIDENATE D2] | Non-toxic | Non-toxic | – | – | –
3 | 6.4 | CCCCOC(=O)CC[C@@H](C)[C@H]1CC(=O)[C@@]2(C)C3=C(C(=O)[C@@H](OC(C)=O)[C@]12C)[C@@]1(C)CC[C@H](O)C(C)(C)[C@@H]1CC3=O [BUTYL LUCIDENATE E2] | Non-toxic | Non-toxic | Active | Dose-dependent effect | –
4 | 4.5 | CCCCOC(=O)CC[C@@H](C)[C@H]1CC(=O)[C@@]2(C)C3=C(C(=O)C[C@]12C)[C@@]1(C)CC[C@H](O)C(C)(C)[C@@H]1C[C@@H]3O [BUTYL LUCIDENATE N] | Non-toxic | Non-toxic | Active | Dose-dependent effect | –
5 | 7.4 | CCCCOC(=O)CC[C@@H](C)[C@H]1CC(=O)[C@@]2(C)C3=C(C(=O)[C@@H](OC(C)=O)[C@]12C)[C@@]1(C)CC[C@H](O)C(C)(C)[C@@H]1C[C@@H]3O [BUTYL LUCIDENATE P] | Non-toxic | Non-toxic | Active | Dose-dependent effect | –
6 | – | CC(C)[C@@H](C)/C=C/[C@@H](C)[C@H]1CC[C@H]2C3=CC=C4C[C@@H](O)CC[C@]4(C)[C@H]3CC[C@]12C [ERGOSTEROL] | Non-toxic | Non-toxic | – | – | –
7 | – | C[C@H](CC[C@@H](O)C(C)(C)O)[C@H]1CC[C@@]2(C)C3=CC[C@H]4C(C)(C)C(=O)CC[C@]4(C)C3=CC[C@]12C [GANODERMANONDIOL] | Non-toxic | Non-toxic | – | – | –
8 | 4.3 | CCCCOC(=O)CC[C@@H](C)[C@H]1C[C@H](O)[C@@]2(C)C3=C(C(=O)C[C@]12C)[C@@]1(C)CCC(=O)C(C)(C)[C@@H]1C[C@@H]3O [LUCIDENATE Q] | – | – | – | – | 14
9 | – | COC(=O)C(C)CC(=O)C[C@@H](C)[C@H]1CC(=O)[C@@]2(C)C3=C(C(=O)[C@@H](OC(C)=O)[C@]12C)[C@@]1(C)CC[C@H](O)C(C)(C)[C@@H]1CC3=O (stereo partly specified) [METHYL GANODERATE H] | Non-toxic | Non-toxic | – | – | –
10 | 9.2 | COC(=O)C(C)CC(=O)C[C@@H](C)[C@H]1C[C@H](O)[C@@]2(C)C3=C(C(=O)C[C@]12C)[C@@]1(C)CCC(=O)C(C)(C)[C@@H]1CC3=O (stereo partly specified) [METHYL GANODERATE J] | Non-toxic | Non-toxic | – | – | –
11 | – | COC(=O)CC[C@@H](C)[C@H]1CC(=O)[C@@]2(C)C3=C(C(=O)C[C@]12C)[C@@]1(C)CCC(=O)C(C)(C)[C@@H]1C[C@@H]3O [METHYL LUCIDENATE A] | Non-toxic | Non-toxic | – | – | –
12 | – | COC(=O)CC[C@@H](C)[C@H]1CC(=O)[C@@]2(C)C3=C(C(=O)C[C@]12C)[C@@]1(C)CC[C@H](O)C(C)(C)[C@@H]1C[C@@H]3O [METHYL LUCIDENATE N] | Non-toxic | Non-toxic | – | – | –

Row | Structure (SMILES) | IC50 (RAW264.7 [3]) [µM] | Activity (RAW264.7 [1]) | Activity (RAW264.7 [2]) | inhibition (RAW264.7 [4]) | inhibition (RAW264.7 [5]) | IC50 (RAW264.7 [1]; Mus musculus, RAW264.7, 24 h) [µM]
13 | CC(C)[C@@H](C)/C=C/[C@@H](C)[C@H]1CC[C@@H]2[C@]1(C)CC[C@H]1[C@]23C=C[C@]2(C[C@@H](O)CC[C@]12C)OO3 [ERGOSTEROL PEROXIDE] | 9.4 | Non-toxic | Non-toxic | – | – | –
14 | C[C@H](CCC=C(CO)CO)[C@H]1CC[C@@]2(C)C3=CC[C@H]4C(C)(C)C(=O)CC[C@]4(C)C3=CC[C@]12C [GANODERIOL F] | 36 | Non-toxic | Non-toxic | – | – | –
